The text below walks through data of patent publication US11219614B2, “Combination cancer therapy with pentaaza macrocyclic ring complex and ascorbate compound” (Galera Labs, LLC, priority 2016, dated 2022).

The subject of data set [1] is Normal human fibroblasts (NHFs). Kind of data set: surviving fraction of normal human fibroblasts. In kind it is cell-based. The note with it: 5 μM GC4419 24 h followed by 10 pmol/cell ascorbate 1 h; FIG. 9. As to the method:
FIG. 9 is a graph showing the normalized surviving fraction of normal human fibroblasts (NHFs) treated with GC4419, ascorbate, and a combination of GC4419 and ascorbate. Normal human fibroblasts (NHFs) were plated and grown in culture (low FBS media) for 48 hours. The NHFs were then treated with 5 μM GC4419 for 24 hours followed by treatment with 10 pmol/cell ascorbate for 1 hour.
Normal human fibroblasts (NHFs) were plated and grown in culture (low FBS media) for 48 hours. The NHFs were then treated with 5 μM GC4419 for 24 hours followed by treatment with 10 pmol/cell ascorbate for 1 hour.

Data set [2] concerns tongue carcinoma cells (Cal27). Kind of data set: clonogenic cell survival assay, Cal27. The class given is cell-based, Human. The procedure:
FIG. 4 is a plot showing the surviving fraction of Cal27 cells for increasing amounts of ascorbate, as determined by a clonogenic cell survival assay used to determine the effects of the compound alone and in combination with a pentaaza macrocyclic ring complex (GC4419). Human tongue carcinoma cells (Cal27) were exponentially grown in culture for 48 hours. The cells were then treated with 5-20 μM GC4419 for 24 hours, and ascorbate (Asc) for one hour, followed by immediate clonogenic assay. The cells were trypsinized, counted, replated at varying lower densities and incubated.
(§1) FIG. 6 is a graph showing the surviving fraction of Cal 27 cells treated with ascorbate and combinations with including ascorbate. The effects of ascorbic acid (AA) in combination with a pentaaza macrocyclic ring complex (GC4419) was tested in a clonogenic cell survival assay to determine the effects of the combination alone and when paired with ionizing radiation. Human tongue carcinoma cells (Cal27) were exponentially grown in culture for 48 hours. The cells were then treated with 5 μM GC4419 for 3 hours and 10 pmol/cell ascorbate for 1 hour, either alone, in combination (GC+AA), and/or paired with a dose of ionizing radiation (2 Gy). After the ionizing radiation dose, the cells were trypsinized, counted, replated at varying lower densities and incubated. Plates were stained and counted for clonogenic survival assays.
The effect of ascorbate was tested in a clonogenic cell survival assay to determine the effects of the compound alone and in combination with a pentaaza macrocyclic ring complex (GC4419). Human tongue carcinoma cells (Cal27) were exponentially grown in culture for 48 hours. The cells were then treated with 5-20 μM GC4419 for 24 hours, and ascorbate (Asc) for one hour, followed by immediate clonogenic assay. The cells were trypsinized, counted, replated at varying lower densities and incubated. Plates were stained and counted for clonogenic survival assays.
as §1, with “The” for “FIG. 6 is a graph showing the surviving fraction of Cal 27 cells treated with ascorbate and combinations with including ascorbate. The”

Data set [3] relates to oral mucositis in head-and-neck cancer patients. The following applies: head-and-neck cancer patients undergoing chemoradiation therapy; cited from earlier work.
The next data set has as its system Lung cancer cells (H292). Nature of the data set: clonogenic cell survival assay, H292. In kind it is cell-based. The note with it: ascorbate 1 h in combination with 5, 10 or 20 μM GC4419 24 h; compared to monotherapies; FIG. 2. As to the method: FIG. 2 is a plot showing the surviving fraction of H292 cells for increasing amounts of ascorbate, as determined by a clonogenic cell survival assay to used determine the effects of the compound alone and in combination with a pentaaza macrocyclic ring complex (GC4419). Lung cancer cells (H292) were exponentially grown in culture for 48 hours. The cells were then treated with 5-20 μM GC4419 for 24 hours, and ascorbate (Asc) for one hour, followed immediately by clonogenic assay. The cells were trypsinized, counted, replated at varying lower densities and incubated. Plates were stained and counted for clonogenic survival assays.
The effect of ascorbate was tested in a clonogenic cell survival assay to determine the effects of the compound alone and in combination with a pentaaza macrocyclic ring complex (GC4419). Lung cancer cells (H292) were exponentially grown in culture for 48 hours. The cells were then treated with 5-20 μM GC4419 for 24 hours, and ascorbate (Asc) for one hour followed by immediate clonogenic assay. The cells were trypsinized, counted, replated at varying lower densities and incubated. Plates were stained and counted for clonogenic survival assays.

Take `[Cl][Mn][Cl].c1cc2nc(c1)CN[C@H]1CCCC[C@@H]1NCCN[C@H]1CCCC[C@@H]1NC2` [GC4419]: in data set [1], the “cytotoxicity to normal cells” value was “does not increase cytotoxicity of ascorbate”. For the same compound, the “synergistic activity of the combination” value in data set [2] (5 μM GC4419 3 h + 10 pmol/cell ascorbate 1 h (GC+AA), FIG. 6) is reported as “more than merely an additive effect”. Further, the “cell killing (clonogenic survival)” value is reported as “significant enhancements in cell killing” in data set [2] (5 μM GC4419 3 h + 10 pmol/cell ascorbate 1 h (GC+AA), compared to control and to either alone, FIG. 6); “significant enhancements in cell killing” in data set [2] (ascorbate 1 h in combination with 5, 10 or 20 μM GC4419 24 h, compared to monotherapies, FIG. 4); “significant enhancements in cell killing” in the data set on Lung cancer cells (H292). Moreover, the “sensitization to ionizing radiation” value in data set [2] (GC+AA+IR (2 Gy) compared to IR 2Gy alone, FIG. 6) was “sensitized the cancer cells to radiation”. Besides, the oral mucositis result in data set [3] was “reduce oral mucositis”.
